Experiments:
MHC and myogenin = assay: Western blot of myoblast differentiation markers in C2C12 cells; type: cell-based, mouse; conditions: 500 μM H2O2, vs DMSO group, FIG. 4
Procedure: (§1) At this time, 500 μM of H2O2 (hydrogen peroxide) was treated with the differentiation medium to create conditions for inhibiting differentiation. Thereafter, the differentiation medium containing H2O2 and the drugs were exchanged every 2 days. After 4 to 6 days, when the shape of myotubes was confirmed, the myotubes were added with 80 μl of a lysis buffer and then vortexed, and centrifuged for 10 minutes at 14000 rpm, and the obtained proteins were added with a 5× sample buffer and reacted in 95° C. boiling water for 5 minutes. 8 μg of the reacted proteins was loaded on 8% and 12% SDS-PAGE gels, developed, and then transferred to a membrane. The membrane was blocked with PBST containing 5% skim milk at room temperature for 1 hour. The membrane was washed with 1×PBST, added with a primary antibody diluted at 1:1000, and then O/N reacted at 4° C. The next day, the membrane was washed with 1×PBST three times every 10 minutes, added with a secondary antibody diluted at 1:5000 in PBST containing 5% skim milk, and then reacted at room temperature for 1 hour. The membrane was washed with 1×PBST three times every 10 minutes, reacted in an enhanced chemiluminescent solution (ECL), and then exposed to an X-ray film to obtain a Western blot analysis result.

4-EBP = assay: Western blot of AKT/mTOR pathway sub-signal 4-EBP in C2C12 cells; type: cell-based, mouse; conditions: 10 μM, 500 μM H2O2, FIG. 4
Procedure: as §1

[1] = test system: MSCs derived from MDX mice; assay: Proliferation of muscle satellite cells (MSCs) derived from MDX mice; type: cell-based, mouse; conditions: 100 μM, 48 hours, vs PBS control, FIG. 6
Source text: In MDX mice (Jackso lab, stock no. 001801) (including point mutations in a DMD gene), as the most popular experimental model for testing Duchenne muscular dystrophy, older MDX mice over 40 weeks of age that maintained a homogenous transgenic state through mating and breeding and wild-type mice (normal mice) were anesthetized with isoflurane and then both tibialis anterior (TA) muscles were punctured 30 times each with a 26 G syringe (Korea Vaccine, Cat no. 27-00024-01) to induce physical muscle destruction. On day 3 after inducing muscle destruction, the mice were sacrificed and the TA muscles were separated, washed with 1×PBS (137 mM NaCl, 2.7 mM KCl, 10 mM Na2HPO4, […]) twice, and then chopped for 5 minutes with a razor blade, added in serum-free DMEM (GE healthcare, Cat no. SH30243.01) diluted with collagenase II (ThermoFisher, Cat no. 17101015) to a concentration of 2 mg/ml and digested for 1 hour. Thereafter, a supernatant was removed by centrifugation at 300×g for 5 minutes, washed once with serum-free DMEM, and passed through a 70 μm strainer. […] In the experiment, the average and each standard deviation of measurement results of three or more times were obtained, and significance with the control was determined through T testing (*: […].<0.001).

p70S6K = assay: Western blot of AKT/mTOR pathway sub-signal p70S6K in C2C12 cells; type: cell-based, mouse; conditions: 10 μM, 500 μM H2O2, FIG. 4
Procedure: as §1

SOD1 G93A mice = assay: Duration of life of Lou Gehrig (ALS) animal model mice; type: in vivo, mouse
Source text: The presence of symptoms and mortality were confirmed through a daily behavioral test set.

C2C12 cells = assay: Myoblast differentiation of C2C12 cells seen by microscope under differentiation-suppressing condition (H2O2); type: cell-based, mouse; conditions: 10 μM, 500 μM H2O2, FIG. 3

Structure (SMILES) | expression levels of MHC and myogenin (MHC and myogenin; 5 μM) | expression levels of MHC and myogenin (MHC and myogenin; 10 μM) | expression of 4-EBP compared to the control group (DMSO) (4-EBP) | proliferation of MSCs derived from MDX mice [1] | expression of P70S6K (p70S6K) | total median duration of life compared to the drug non-administered group (SOD1 G93A mice; 30 mpk (combination each 30 mpk), intraperitoneally from 10 weeks old, FIG. 1) | prolongation of median duration of life after the appearance of Lou Gehrig's symptoms (SOD1 G93A mice; 30 mpk intraperitoneally from 10 weeks old, non-administered group about 5 weeks, FIG. 2) | prolongation of duration of life converted to Lou Gehrig's patients (SOD1 G93A mice; extrapolated: 5 weeks in mice taken as about 2 years median duration of life in patients) | myoblast differentiation (C2C12 cells)
CN(C)CCOC(c1ccccc1)c1ccccc1.Cn1c(=O)c2[nH]c(Cl)nc2n(C)c1=O [OC-501, dimenhydrinate] | increased | increased | – | – | – | – | – | – | –
CC(C)(CO)[C@@H](O)C(=O)NCCC(=O)O [OC-504, calcium pantothenate] | – | increased | increased | significantly promoted | increased | increased statistically significantly | about 2 weeks | about 9.6 months | significantly increased
